Data reported in US6294542A, “Pyrimidinone compounds, pharmaceutical compositions containing the compounds and the process for preparing the same” (Boryung Pharmaceutical Co. Ltd., priority 1998, dated 2001).

Tests used:
[1] = Acute Toxicity Test (oral, mice); assay type: in vivo; conditions: for LD50: mouse, in vivo, po
Experimental: Respective 5 mice of ICR system, which was distributed from Korean Laboratory Animal Center, were bred in a polycarbonate breeding box at a breeding environment of 23±1° C. of temperature, 55±5% of humidity, 10-15 times/hr of evacuation, 12 hr cycle of fluorescent light luminance, and 150-300 Lux of illumination.
After observing the mice for one week of acclimation breeding period, only normal mice were selected for laboratory work. The mice were fed with sterilized feed for laboratory animals, which was made by Cheil Jedang Co.,Ltd, and supplied with purified water to drink.
During the acclimation period, mice, who were evaluated to be healthy, were weighed and divided into groups randomly. Individual identification of laboratory animals was performed by indumentum pigment display and tag display per breeding box.
Establishment of dose was carried out according to a result of preliminary test in such a manner that a maximum dose group for both male and female was set to 5000 mg/kg and azeotropy was set to 1.71. Medium-high, medium and medium-low dose groups were respectively set as follows and a control group was administrated with physiological saline for injection.
Before administration of testing substances, body weight of the laboratory animals was in the range of 24-28 g in case of male and in the range of 19-28 g in case of female, respectively. The laboratory animals were aged 6 weeks.
Preparation of the testing substances was dissolved in physiological saline before administration. Dose was calculated according to the body weight which was measured before administration and dispensed by oral administration to a mouse who was in abrosia for 18 hours before testing.
Observation of clinical symptom such as general change, toxic symptom and mortality was performed for all laboratory animals once an hour during 6 hours after administration on the very administration day, and once a day from the next day to 14th day of administration.
Administration group, who was administered with testing substances, and the control group were weighed on the administration day, first, third, seventh, tenth and fourteenth days from the administration at a predetermined time for all animals who were alive.
After finish of the test, all animals were slightly anesthetized with ether and bleeding-killed. Appearance and internal organs of the animals were examined with naked eye carefully. Animals, who died during the text, were examined in the same manner.

[2] = tested on: Angiotensin II-induced pressor response; assay: In vivo Angiotensin II antagonism in conscious normotensive rats; conditions: Rattus norvegicus, po; P.O.; conscious normotensive male SD rats; Angiotensin II 0.1 μg/kg; read-out: ID50 (dose of test compound necessary to produce 50% inhibition of Angiotensin II-induced pressor response)
Experimental: The antagonistic activity of the compound (I) against the angiotensin II, which is prepared by the process according to a preferred embodiment of the invention, was evaluated with relation to rats.
In vivo Angiotensin II antagonism in conscious normotensive rats.
Male SD rats (Charles River Japan, 9 weeks, 300-350 g) were anesthetized with pentobarbital at 50 mg/kg i.p. Both the left femoral artery and the right femoral vein were cannulated. A heparin-filled catheter (50U/ml) was tunneled subcutaneously (s.c.) to the dorsal side of the neck and exteriorized.
Rats were permitted to recover overnight from anesthesia and allowed free access to water, but food was withheld.
The next day, the femoral artery catheter was connected to a pressure transducer (COBE 041-500-508, USA) coupled to a polygraph (GRASS Model 7, USA) to monitor arterial blood pressure. After an appropriate equilibration period, Angiotensin II (0.1 μg/kg) was injected in the femoral vein three times during the control period.
Test compounds were then administered orally (p.o.) at a constant volume of 2 ml/kg.
Angiotensin II challenges were repeated at set times thereafter.
ID50 values, the dose of test compound necessary to produce 50% inhibition of Angiotensin II-induced pressor response, were calculated from peak inhibition percentage with several doses of test compound.

CCCCc1nc(C)c(CC(=S)N2CCCC2)c(=O)n1Cc1ccc(-c2ccccc2-c2nnn[nH]2)cc1 [Compound 8, 2-n-butyl-5-pyrrolidinothiocarbonylmethyl-6-methyl-3-[[2'-(1H-tetrazol-5-yl)-biphenyl-4-yl]methyl]-pyrimidine-4(3H)-one]
Final mortality (death number/total number) ([1]; female, 1000 mg/kg oral): 0/5 | Mortality (death number/survival number) ([1]; female, 1000 mg/kg oral, day 0): 0/5 | Mortality (death number/survival number) ([1]; female, 1000 mg/kg oral, day 1): 0/5 | Mortality (death number/survival number) ([1]; female, 1000 mg/kg oral, day 2): 0/5 | Mortality (death number/survival number) ([1]; female, 1000 mg/kg oral, day 3): 0/5 | Mortality (death number/survival number) ([1]; female, 1000 mg/kg oral, day 7): 0/5 | Mortality (death number/survival number) ([1]; female, 1000 mg/kg oral, day 14): 0/5 | Final mortality (death number/total number) ([1]; female, 1710 mg/kg oral): 0/5 | Mortality (death number/survival number) ([1]; female, 1710 mg/kg oral, day 0): 0/5 | Mortality (death number/survival number) ([1]; female, 1710 mg/kg oral, day 1): 0/5 | Mortality (death number/survival number) ([1]; female, 1710 mg/kg oral, day 2): 0/5 | Mortality (death number/survival number) ([1]; female, 1710 mg/kg oral, day 3): 0/5 | Mortality (death number/survival number) ([1]; female, 1710 mg/kg oral, day 7): 0/5 | Mortality (death number/survival number) ([1]; female, 1710 mg/kg oral, day 14): 0/5 | Final mortality (death number/total number) ([1]; female, 2924 mg/kg oral): 2/5 | Mortality (death number/survival number) ([1]; female, 2924 mg/kg oral, day 0): 2/5 | Mortality (death number/survival number) ([1]; female, 2924 mg/kg oral, day 1): 0/3 | Mortality (death number/survival number) ([1]; female, 2924 mg/kg oral, day 2): 0/3 | Mortality (death number/survival number) ([1]; female, 2924 mg/kg oral, day 3): 0/3 | Mortality (death number/survival number) ([1]; female, 2924 mg/kg oral, day 7): 0/3 | Mortality (death number/survival number) ([1]; female, 2924 mg/kg oral, day 14): 0/3 | Final mortality (death number/total number) ([1]; female, 5000 mg/kg oral): 4/5 | Mortality (death number/survival number) ([1]; female, 5000 mg/kg oral, day 0): 4/5 | Mortality (death number/survival number) ([1]; female, 5000 mg/kg oral, day 1): 0/1 | Mortality (death number/survival number) ([1]; female, 5000 mg/kg oral, day 2): 0/1 | Mortality (death number/survival number) ([1]; female, 5000 mg/kg oral, day 3): 0/1 | Mortality (death number/survival number) ([1]; female, 5000 mg/kg oral, day 7): 0/1 | Mortality (death number/survival number) ([1]; female, 5000 mg/kg oral, day 14): 0/1 | Final mortality (death number/total number) ([1]; male, 1000 mg/kg oral): 0/5 | Mortality (death number/survival number) ([1]; male, 1000 mg/kg oral, day 0): 0/5 | Mortality (death number/survival number) ([1]; male, 1000 mg/kg oral, day 1): 0/5 | Mortality (death number/survival number) ([1]; male, 1000 mg/kg oral, day 2): 0/5 | Mortality (death number/survival number) ([1]; male, 1000 mg/kg oral, day 3): 0/5 | Mortality (death number/survival number) ([1]; male, 1000 mg/kg oral, day 7): 0/5 | Mortality (death number/survival number) ([1]; male, 1000 mg/kg oral, day 14): 0/5 | Final mortality (death number/total number) ([1]; male, 1710 mg/kg oral): 2/5 | Mortality (death number/survival number) ([1]; male, 1710 mg/kg oral, day 0): 2/5 | Mortality (death number/survival number) ([1]; male, 1710 mg/kg oral, day 1): 0/3 | Mortality (death number/survival number) ([1]; male, 1710 mg/kg oral, day 2): 0/3 | Mortality (death number/survival number) ([1]; male, 1710 mg/kg oral, day 3): 0/3 | Mortality (death number/survival number) ([1]; male, 1710 mg/kg oral, day 7): 0/3 | Mortality (death number/survival number) ([1]; male, 1710 mg/kg oral, day 14): 0/3 | Final mortality (death number/total number) ([1]; male, 2924 mg/kg oral): 3/5 | Mortality (death number/survival number) ([1]; male, 2924 mg/kg oral, day 0): 3/5 | Mortality (death number/survival number) ([1]; male, 2924 mg/kg oral, day 1): 0/2 | Mortality (death number/survival number) ([1]; male, 2924 mg/kg oral, day 2): 0/2 | Mortality (death number/survival number) ([1]; male, 2924 mg/kg oral, day 3): 0/2 | Mortality (death number/survival number) ([1]; male, 2924 mg/kg oral, day 7): 0/2 | Mortality (death number/survival number) ([1]; male, 2924 mg/kg oral, day 14): 0/2 | Final mortality (death number/total number) ([1]; male, 5000 mg/kg oral): 4/5 | Mortality (death number/survival number) ([1]; male, 5000 mg/kg oral, day 0): 2/5 | Mortality (death number/survival number) ([1]; male, 5000 mg/kg oral, day 1): 1/3 | Mortality (death number/survival number) ([1]; male, 5000 mg/kg oral, day 2): 0/2 | Mortality (death number/survival number) ([1]; male, 5000 mg/kg oral, day 3): 0/2 | Mortality (death number/survival number) ([1]; male, 5000 mg/kg oral, day 7): 1/2 | Mortality (death number/survival number) ([1]; male, 5000 mg/kg oral, day 14): 0/1 | LD50 ([1]; female mice): 4060 mg/kg | LD50 ([1]; male mice): 3170 mg/kg | ED50 [2]: 0.93 mg/kg
